pIC50: −log10 of the molar value.
Target: T1, PDGF-receptor beta enzyme comprising the tyrosine kinase domain (Homo sapiens, UniProt P09619)
T1 construct: from amino acid 545 to 1106 of GenBank Access NO: AAA36427
Test: Inhibition of PDGF-receptor kinase activity (cell-free, PLC1 peptide, 33P Flashplate)
Type: biochemical
Settings: PDGF-R kinase activity; for inhibition at 10 µM: compound at 10 uM, read-out: Percent Inhibition @ 10 uM; for pIC50: read-out: IC50
Method in brief: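 Recombinant kinase domain (aa 545–1106) phosphorylated a biotinylated PLC1 peptide with 5 μM ATP plus 33P-γ-ATP, in Tris pH 8, MgCl2, Na3VO4 and 1 mM DTT, for 60 min at 30 °C. Retained 33P was counted after washing. IC50 is the concentration halving activity versus no-inhibitor reactions.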

T1 sequence (P09619 545-1106): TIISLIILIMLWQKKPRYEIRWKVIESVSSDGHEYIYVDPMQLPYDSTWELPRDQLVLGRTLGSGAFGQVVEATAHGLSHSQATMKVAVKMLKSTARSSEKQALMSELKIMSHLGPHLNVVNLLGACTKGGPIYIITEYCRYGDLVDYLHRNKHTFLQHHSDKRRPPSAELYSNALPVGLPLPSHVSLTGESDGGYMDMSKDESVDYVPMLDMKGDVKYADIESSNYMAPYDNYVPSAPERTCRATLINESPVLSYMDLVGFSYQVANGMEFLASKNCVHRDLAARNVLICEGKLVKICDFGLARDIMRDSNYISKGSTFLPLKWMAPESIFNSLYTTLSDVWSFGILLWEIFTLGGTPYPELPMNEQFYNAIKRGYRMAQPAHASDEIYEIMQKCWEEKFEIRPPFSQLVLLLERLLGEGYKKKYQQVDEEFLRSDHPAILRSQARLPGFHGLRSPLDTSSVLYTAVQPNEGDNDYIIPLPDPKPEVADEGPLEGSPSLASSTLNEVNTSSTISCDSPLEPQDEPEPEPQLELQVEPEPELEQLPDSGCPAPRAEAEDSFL

Row | Compound | inhibition at 10 µM [%] | pIC50
1 | OCCCOc1cc2c(cc1OCCCO)-c1n[nH]c(Nc3cccnc3)c1C2 [Compound 372, 3-[7-(3-Hydroxy-propoxy)-3-(pyridin-3-ylamino)-2,4-dihydro-indeno[1,2-c]pyrazol-6-yloxy]-propan-1-ol] | 100 | 7.81
2 | CCOc1cccc(Nc2[nH]nc3c2Cc2cc(OCC)c(OCC)cc2-3)c1 [Compound 375, (6,7-Diethoxy-2,4-dihydro-indeno[1,2-c]pyrazol-3-yl)-(3-ethoxy-phenyl)-amine] | 96.5 | 6.99
3 | COc1cc2c(cc1OC)-c1n[nH]c(Nc3cccnc3Cl)c1C2 [Compound 377, (2-Chloro-pyrid-3-yl)-(6,7-dimethoxy-2,4-dihydro-indeno[1,2-c]pyrazol-3-yl)-amine] | 99 | 8.07
4 | Cc1ccccc1CNc1[nH]nc2c1Cc1cc(F)ccc1-2 [Compound 378, (6-Fluoro-2,4-dihydro-indeno[1,2-c]pyrazol-3-yl)-(2-methyl-benzyl)-amine] | 94.5 | 6.33
5 | COc1cc2c(cc1OCC(O)CO)Cc1c-2n[nH]c1NCc1ccccc1F (centres unmarked) [Compound 387, 3-[3-(2-Fluoro-benzylamino)-7-methoxy-2,4-dihydro-indeno[1,2-c]pyrazol-6-yloxy]-propane-1,2-diol] | 100 | 7.93
6 | COc1cc2c(cc1OCC(O)CN1CCCC1)Cc1c-2n[nH]c1NCc1c(Cl)cccc1Cl (centres unmarked) [Compound 390, 1-[3-(2,6-Dichloro-benzylamino)-7-methoxy-2,4-dihydro-indeno[1,2-c]pyrazol-6-yloxy]-3-pyrrolidin-1-yl-propan-2-ol] | 99 | 8.69
7 | Clc1cccc(Nc2[nH]nc3c2Cc2c(OCCCN4CCOCC4)cccc2-3)c1 [Compound 392, (3-Chloro-phenyl)-[5-(3-morpholin-4-yl-propoxy)-2,4-dihydro-indeno[1,2-c]pyrazol-3-yl]-amine] | 80 | 6.82
8 | Fc1cccc(Nc2[nH]nc3c2Cc2c(OCCCN4CCOCC4)cccc2-3)c1 [Compound 393, (3-Fluoro-phenyl)-[5-(3-morpholin-4-yl-propoxy)-2,4-dihydro-indeno[1,2-c]pyrazol-3-yl]-amine] | 94.5 | 6.76
9 | CCOc1cccc(Nc2[nH]nc3c2Cc2c(OCCCN4CCOCC4)cccc2-3)c1 [Compound 394, (3-Ethoxy-phenyl)-[5-(3-morpholin-4-yl-propoxy)-2,4-dihydro-indeno[1,2-c]pyrazol-3-yl]-amine] | 91 | 6.48
10 | COc1cc2c(cc1OC)-c1nn(C(=O)Nc3cccc(F)c3)c(Nc3cccc(F)c3)c1C2 [Compound 395, 3-(3-Fluoro-phenylamino)-6,7-dimethoxy-4H-indeno[1,2-c]pyrazole-2-carboxylic acid (3-fluoro-phenyl)-amide] | 88 | 6.16
11 | COc1cc2c(cc1OCC(O)CN1CCCC1)Cc1c-2n[nH]c1NCc1ccccc1F (centres unmarked) [Compound 397, 1-[3-(2-Fluoro-benzylamino)-7-methoxy-2,4-dihydro-indeno[1,2-c]pyrazol-6-yloxy]-3-pyrrolidin-1-yl-propan-2-ol] | 92 | 8.11
12 | c1cncc(Nc2[nH]nc3c2Cc2sccc2-3)c1 [Compound 402, (5,7-Dihydro-1-thia-4,5-diaza-cyclopenta[a]pentalen-6-yl)-pyridin-3-yl-amine] | 90 | 6.71
13 | Clc1cccc(Nc2[nH]nc3c2Cc2sccc2-3)c1 [Compound 403, (3-Chloro-phenyl)-(5,7-dihydro-1-thia-4,5-diaza-cyclopenta[a]pentalen-6-yl)-amine] | 96 | 7.07
14 | Fc1ccc(Nc2[nH]nc3c2Cc2sccc2-3)cc1Cl [Compound 404, (3-Chloro-4-fluoro-phenyl)-(5,7-dihydro-1-thia-4,5-diaza-cyclopenta[a]pentalen-6-yl)-amine] | 74.5 | 5.95
15 | CCOc1cccc(Nc2[nH]nc3c2Cc2sccc2-3)c1 [Compound 405, (5,7-Dihydro-1-thia-4,5-diaza-cyclopenta[a]pentalen-6-yl)-(3-ethoxy-phenyl)-amine] | 94.5 | 7.20
16 | COc1cc2c(cc1OC)-c1nn(C(C)=O)c(Nc3cccc(F)c3)c1C2 [Compound 406, 1-[3-(3-Fluoro-phenylamino)-6,7-dimethoxy-4H-indeno[1,2-c]pyrazol-2-yl]-ethanone] | 96 | 7.12
17 | CCOC(=O)CNC(=O)n1nc2c(c1Nc1cccc(F)c1)Cc1cc(OC)c(OC)cc1-2 [Compound 407, {[3-(3-Fluoro-phenylamino)-6,7-dimethoxy-4H-indeno[1,2-c]pyrazole-2-carbonyl]-amino}-acetic acid ethyl ester] | 39 | 5.01

Row | Compound | inhibition at 10 µM [%] | pIC50
18 | COc1cc2c(cc1OC)-c1nn(COC(=O)C(C)(C)C)c(Nc3cccc(F)c3)c1C2 [Compound 408, 2,2-Dimethyl-propionic acid 3-(3-fluoro-phenylamino)-6,7-dimethoxy-4H-indeno[1,2-c]pyrazol-2-ylm ethyl ester] | 83 | 6.16
19 | COc1cc2c(cc1OC)-c1c(c(Nc3cccc(F)c3)nn1COC(=O)C(C)(C)C)C2 [Compound 409, 2,2-Dimethyl-propionic acid 3-(3-fluoro-phenylamino)-6,7-dimethoxy-4H-indeno[1,2-c]pyrazol-1-ylm ethyl ester] | 85.5 | 6.97
20 | COc1cc2c(cc1OC)-c1n[nH]c(Nc3cccc(F)c3Br)c1C2 [Compound 410, (2-Bromo-3-fluoro-phenyl)-(6,7-dimethoxy-2,4-dihydro-indeno[1,2-c]pyrazol-3-yl)-amine] | 83.5 | 5.97
21 | CCOC(=O)CCNC(=O)n1nc2c(c1Nc1ccccc1)Cc1cc(OC)c(OC)cc1-2 [Compound 411, 3-[(6,7-Dimethoxy-3-phenlylamino-4H-indeno[1,2-c]pyrazole-2-carbonyl)-amino]-propionic acid ethyl ester] | 14.5 | 7.08
22 | COC(=O)C(CC(C)C)NC(=O)n1nc2c(c1Nc1cccc(F)c1)Cc1cc(OC)c(OC)cc1-2 (centres unmarked) [Compound 412, 2-{[3-(3-Fluoro-phenylamino)-6,7-dimethoxy-4H-indeno[1,2-c]pyrazole-2-carbonyl]-amino}-4-methyl-pentanoic acid methyl ester] | 44 | 4.90
23 | COC(=O)C(NC(=O)n1nc2c(c1Nc1cccc(F)c1)Cc1cc(OC)c(OC)cc1-2)C(C)C (centres unmarked) [Compound 413, 2-{[3-(3-Fluoro-phenylamino)-6,7-dimethoxy-4H-indeno[1,2-c]pyrazole-2-carbonyl]-amino}-3-methyl-butyric acid methyl ester] | 71 | 5.94
24 | Fc1cccc(F)c1CNc1[nH]nc2c1Cc1c(OCCCN3CCOCC3)cccc1-2 [Compound 414, (2,6-Difluoro-benzyl)-[5-(3-morpholin-4-yl-propoxy)-2,4-dihydro-indeno[1,2-c]pyrazol-3-yl]-amine] | 80.5 | 6.25
25 | Fc1ccccc1CNc1[nH]nc2c1Cc1c(OCCCN3CCOCC3)cccc1-2 [Compound 416, (2-Fluoro-benzyl)-[5-(3-morpholin-4-yl-propoxy)-2,4-dihydro-indeno[1,2-c]pyrazol-3-yl]-amine] | 72.5 | 5.93
26 | COc1cc(Nc2[nH]nc3c2Cc2c(OC)cccc2-3)cc(C(F)(F)F)c1 [Compound 417, (5-Methoxy-2,4-dihydro-indeno[1,2-c]pyrazol-3-yl)-(3-methoxy-5-trifluoromethyl-phenyl)-amine] | 27.5 | 4.91
27 | COc1cccc2c1Cc1c-2n[nH]c1Nc1cccc(S(N)(=O)=O)c1 [Compound 418, 3-(5-Methoxy-2,4-dihydro-indeno[1,2-c]pyrazol-3-ylamino)-benzenesulfonamide] | 82.5 | 6.05
28 | CCC1c2cc(OC)c(OC)cc2-c2n[nH]c(Nc3cccc(F)c3)c21 (centres unmarked) [Compound 421, (4-Ethyl-6,7-dimethoxy-2,4-dihydro-indeno[1,2-c]pyrazol-3-yl)-(3-fluoro-phenyl)-amine] | 100 | 7.09
29 | COc1cccc2c1Cc1c-2n[nH]c1NCc1c(F)cccc1F [Compound 423, (2,6-Difluoro-benzyl)-(5-methoxy-2,4-dihydro-indeno[1,2-c]pyrazol-3-yl)-amine] | 90 | 6.74
30 | COc1cc2c(cc1OC)-c1n[nH]c(NCc3cccc(Cl)c3)c1C2 [Compound 424, (3-Chloro-benzyl)-(6,7-dimethoxy-2,4-dihydro-indeno[1,2-c]pyrazol-3-yl)-amine] | 100 | 7.10
31 | COc1cc2c(cc1F)Cc1c-2n[nH]c1NCc1ccccc1C [Compound 425, (6-Fluoro-7-methoxy-2,4-dihydro-indeno[1,2-c]pyrazol-3-yl)-(2-methyl-benzyl)-amine] | 96 | 8.64
32 | COc1cc2c(cc1F)Cc1c-2n[nH]c1NCc1ccccc1F [Compound 426, (2-Fluoro-benzyl)-(6-fluoro-7-methoxy-2,4-dihydro-indeno[1,2-c]pyrazol-3-yl)-amine] | 97 | 6.62
33 | COc1cc2c(cc1OC)-c1c(c(Nc3cccc(F)c3)nn1C(=O)c1ccccc1)C2 [Compound 427, [3-(3-Fluoro-phenylamino)-6,7-dimethoxy-4H-indeno[1,2-c]pyrazol-1-yl]-phenyl-methanone] | 80 | 5.94
34 | COC(=O)CCC(=O)n1nc(Nc2cccc(F)c2)c2c1-c1cc(OC)c(OC)cc1C2 [Compound 428, 4-[3-(3-Fluoro-phenylamino)-6,7-dimethoxy-4H-indeno[1,2-c]pyrazol-1-yl]-4-oxo-butyric acid methyl ester] | 85.5 | 6.36
